Experimental data published in ChEMBL document CHEMBL1201862, “PubChem BioAssay data set” (2004).
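Cultured in 96-well plates, cells were exposed to test compound for 48 hours across five concentrations. GI50: concentration for 50% inhibition of growth.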 The source made the active and inactive calls. Rule as the data show it: active = GI50 up to about 1.1 µM and inactive = higher.

Legend:
Test in all cases: NCI anticancer screen, dose series, 48 h
DMS-114 = test system: DMS-114
HCT-15 = test system: HCT-15
K562 = test system: K562
KM12 = test system: KM12
LXFL 529 = test system: LXFL 529
M14 = test system: M14
MOLT-4 = test system: MOLT-4
NCI-H23 = test system: NCI-H23
OVCAR-4 = test system: OVCAR-4
OVCAR-5 = test system: OVCAR-5
OVCAR-8 = test system: OVCAR-8
SW-620 = test system: SW-620
UO-31 = test system: UO-31
DMS-273 = test system: DMS-273

Compound	GI50 (DMS-114)	GI50 (HCT-15)	GI50 (K562)	GI50 (KM12)	GI50 (LXFL 529)	GI50 (M14)	GI50 (MOLT-4)	GI50 (NCI-H23)	GI50 (OVCAR-4)	GI50 (OVCAR-5)	GI50 (OVCAR-8)	GI50 (SW-620)	GI50 (UO-31)	GI50 (DMS-273)
[O-]c1c2c(nn1-c1ccc(F)cc1)c1ccccc1c[n+]2Cc1ccccc1	10.8 µM (inactive)	0.581 µM	0.687 µM (active)	1.43 µM (inactive)	0.448 µM (active)	1.79 µM (inactive)	5.45 µM (inactive)	16.3 µM (inactive)	19.3 µM (inactive)	11.9 µM (inactive)	12.8 µM (inactive)	14.8 µM (inactive)	10.2 µM (inactive)	
O=[N+]([O-])c1ccc(-c2ccc(-c3csc(Nc4ccccn4)n3)o2)cc1		79.8 µM	66.5 µM (inactive)	49.5 µM (inactive)	25.1 µM (inactive)	59.6 µM (inactive)	> 100 µM (inactive)	> 10 µM (inactive)	4.76 µM (inactive)	> 100 µM (inactive)	64.7 µM (inactive)	> 100 µM (inactive)	> 100 µM (inactive)	35.2 µM (inactive)
CC(=O)NC1C(OCc2ccccc2)OC(CO)C(O)C1OC(C)C(=O)N[C@@H](C)C(=O)N[C@H](CCC(=O)OCCNc1c2ccccc2nc2cccc([N+](=O)[O-])c12)C(N)=O (stereo partly drawn)		0.000166 µM	0.00094 µM (active)	0.00114 µM (active)	0.000622 µM (active)	0.00109 µM (active)	0.00385 µM (active)	0.00148 µM (active)	0.0038 µM (active)	0.00206 µM (active)	0.00235 µM (active)	0.000191 µM (active)	0.00292 µM (active)	0.0016 µM (active)
Cn1c(=O)c2ccccc2c2nc3ccccc3nc21	> 100 µM (inactive)	> 100 µM	> 100 µM (inactive)	> 100 µM (inactive)	> 100 µM (inactive)		> 100 µM (inactive)	> 100 µM (inactive)		> 100 µM (inactive)	> 100 µM (inactive)	> 100 µM (inactive)	> 100 µM (inactive)	> 100 µM (inactive)
C/C(CC(=O)Nc1cc(Cl)c(Cl)cc1Cl)=N\NC(N)=O	> 100 µM (inactive)		> 100 µM (inactive)	> 100 µM (inactive)	> 100 µM (inactive)	> 100 µM (inactive)	> 100 µM (inactive)	> 100 µM (inactive)		> 100 µM (inactive)	> 100 µM (inactive)	> 100 µM (inactive)	> 100 µM (inactive)	> 100 µM (inactive)
CC(C)=CC1CC(=[N+]=[N-])C(=O)C1(C)C (stereo not drawn)	> 58.3 µM (inactive)	86.5 µM	> 71.1 µM (inactive)	> 100 µM (inactive)	> 100 µM (inactive)	> 100 µM (inactive)	> 100 µM (inactive)	> 100 µM (inactive)	> 100 µM (inactive)	> 100 µM (inactive)	> 100 µM (inactive)	> 100 µM (inactive)	> 59 µM (inactive)	
C/C(=N\NC(=O)C(N)=O)c1c(O)cc(C)oc1=O		> 100 µM	> 100 µM (inactive)	> 100 µM (inactive)	> 100 µM (inactive)	> 100 µM (inactive)	> 100 µM (inactive)	> 100 µM (inactive)	> 100 µM (inactive)		> 100 µM (inactive)	> 100 µM (inactive)	> 100 µM (inactive)	
C#Cc1ccccc1C(=O)OC	89.9 µM (inactive)	> 100 µM	> 100 µM (inactive)	> 100 µM (inactive)		> 100 µM (inactive)	> 100 µM (inactive)	> 100 µM (inactive)	> 100 µM (inactive)	> 100 µM (inactive)	> 100 µM (inactive)	> 100 µM (inactive)	> 100 µM (inactive)	> 100 µM (inactive)
CC(=O)NNc1nc(C)c(C(=O)/C=C/c2cccc([N+](=O)[O-])c2)s1	> 100 µM (inactive)	> 100 µM	> 100 µM (inactive)	> 100 µM (inactive)	> 100 µM (inactive)	> 100 µM (inactive)	> 100 µM (inactive)	> 100 µM (inactive)		> 100 µM (inactive)	> 100 µM (inactive)	> 100 µM (inactive)	> 100 µM (inactive)	> 100 µM (inactive)
